Several values for one entry are separate records, joined by “and”; a condition that tells them apart may be missing. Equal entries are not always repeated. Inconclusive results and toxic doses are left out.
System: BDF1 mice, L1210 terephthalanilide-resistant leukemia ip, survival T/C
Test: NCI In Vivo Anticancer Drug Screen. Data for tumor model L1210 Leukemia resistant to A Terephthalanilide; NSC 38280 (intraperitoneal) in B6D2F1 (BDF1) mice
Conditions: endpoint: mean survival time, higher = longer survival
Description: The antitumor activity of compounds was measured in mice bearing transplantable tumors. Survival or tumor size were measured and the results are expressed as the measurement made in the treated group (T) divided by the measurement made in the vehicle treated control group (C). The tumor model used in this assay is L1210 Leukemia resistant to A Terephthalanilide; NSC 38280 (intraperitoneal) in B6D2F1 (BDF1) mice

[1] = dose: 125.0 mg/kg/injection, schedule: Q01DX010 (ip), vehicle: saline
[2] = dose: 250.0 mg/kg/injection, schedule: Q01DX010 (ip), vehicle: saline
[3] = dose: 500.0 mg/kg/injection, schedule: Q01DX010 (ip), vehicle: saline
[4] = dose: 375.0 mg/kg/injection, schedule: Q01DX Z (ip), vehicle: saline
[5] = dose: 500.0 mg/kg/injection, schedule: Q01DX Z (ip), vehicle: saline
[6] = dose: 2.0 mg/kg/injection, schedule: Q01DX010 (ip), vehicle: other
[7] = dose: 4.0 mg/kg/injection, schedule: Q01DX010 (ip), vehicle: other
[8] = dose: 8.0 mg/kg/injection, schedule: Q01DX010 (ip), vehicle: other
[9] = dose: 62.5 micrograms/kg/injection, schedule: Q01DX010 (ip), vehicle: saline
[10] = dose: 125.0 micrograms/kg/injection, schedule: Q01DX010 (ip), vehicle: saline
[11] = dose: 25.0 mg/kg/injection, schedule: Q01DX010 (ip), vehicle: saline
[12] = dose: 50.0 mg/kg/injection, schedule: Q01DX010 (ip), vehicle: saline
[13] = dose: 10.0 mg/kg/injection, schedule: Q01DX010 (ip), vehicle: saline
[14] = dose: 20.0 mg/kg/injection, schedule: Q01DX010 (ip), vehicle: saline
[15] = dose: 25.0 mg/kg/injection, schedule: Q01DX Z (ip), vehicle: carboxymethylcellulose (CMC)

For `OCC1OC(n2cnc3c(Cl)ncnc32)C(O)C1O` (stereo not given), the T/C (dose: 62.5 mg/kg/injection, schedule: Q01DX010 (ip), vehicle: saline) was 90 % of control and 99 % of control, the T/C [1] was 96 % of control and 101 % of control and the T/C [2] was 97 % of control and 103 % of control. The T/C [3] was 101 % of control and 106 % of control.
`O=CN(O)CC(=O)O` was tested, and the T/C [1] was 93 % of control, the T/C (dose: 125.0 mg/kg/injection, schedule: Q01DX Z (ip), vehicle: saline) was 100 % of control and the T/C [2] was 93 % of control. For the same molecule, the T/C (dose: 250.0 mg/kg/injection, schedule: Q01DX Z (ip), vehicle: saline) was 91 % of control, the T/C [4] was 101 % of control and the T/C [3] was 101 % of control. The T/C [5] was 97 % of control.
`O=c1[nH]c(=O)n(C2CC(O)C(CO)O2)cc1Br` (stereo not given) was tested, and the T/C (dose: 62.5 mg/kg/injection, schedule: Q01DX Z (ip), vehicle: carboxymethylcellulose (CMC)) was 110 % of control and the T/C (dose: 500.0 mg/kg/injection, schedule: Q01DX Z (ip), vehicle: carboxymethylcellulose (CMC)) was 119 % of control.
With `CS(=O)(=O)OCCCl` the T/C (dose: 18.8 mg/kg/injection, schedule: Q01DX010 (ip), vehicle: saline) was 99 % of control and 108 % of control, the T/C (dose: 37.5 mg/kg/injection, schedule: Q01DX010 (ip), vehicle: saline) was 90 % of control and 103 % of control and the T/C (dose: 44.0 mg/kg/injection, schedule: Q01DX Z (ip), vehicle: saline) was 103 % of control. For the same molecule, the T/C (dose: 75.0 mg/kg/injection, schedule: Q01DX010 (ip), vehicle: saline) was 107 % of control and 108 % of control, the T/C (dose: 87.5 mg/kg/injection, schedule: Q01DX Z (ip), vehicle: saline) was 115 % of control and the T/C (dose: 150.0 mg/kg/injection, schedule: Q01DX010 (ip), vehicle: saline) was 89 % of control. For the same molecule, the T/C (dose: 175.0 mg/kg/injection, schedule: Q01DX Z (ip), vehicle: saline) was 119 % of control.
In the case of `O=C(Nc1ccc(C2=NCCCN2)cc1)c1ccc(NC(=O)c2ccc(C3=NCCCN3)cc2)cc1`, the T/C [6] is reported as 110 % of control and 112 % of control, the T/C [7] is reported as 123 % of control and the T/C [8] is reported as 102 % of control.
With `CSCS(=O)C[C@H](CO)NC(=O)/C=C/c1c(C)[nH]c(=O)[nH]c1=O` (stereo not given in full) the T/C [9] was 100 % of control, the T/C [10] was 100 % of control and the T/C (dose: 250.0 micrograms/kg/injection, schedule: Q01DX010 (ip), vehicle: saline) was 102 % of control. The T/C (dose: 500.0 micrograms/kg/injection, schedule: Q01DX010 (ip), vehicle: saline) was 102 % of control.
`CCN(CC)CCNc1ccc(C)c2sc3ccccc3c(=O)c12` was tested, and the T/C [11] was 101 % of control and 105 % of control, the T/C (dose: 25.0 mg/kg/injection, schedule: Q01DX Z (ip), vehicle: water) was 111 % of control and the T/C [12] was 105 % of control and 111 % of control. For the same molecule, the T/C (dose: 100.0 mg/kg/injection, schedule: Q01DX010 (ip), vehicle: saline) was 111 % of control and the T/C (dose: 100.0 mg/kg/injection, schedule: Q01DX Z (ip), vehicle: water) was 115 % of control.
With `C[N+](C)(C)c1ncnc2nc[nH]c12` the T/C (dose: 15.0 mg/kg/injection, schedule: Q01DX010 (ip), vehicle: saline) was 92 % of control, the T/C (dose: 30.0 mg/kg/injection, schedule: Q01DX010 (ip), vehicle: saline) was 110 % of control and the T/C (dose: 37.0 mg/kg/injection, schedule: Q01DX Z (ip), vehicle: saline) was 102 % of control.
`CN(C)c1ccc(/C=C/c2ccnc3ccccc23)cc1` was tested, and the T/C (dose: 4.0 mg/kg/injection, schedule: Q01DX010 (ip), vehicle: saline) was 96 % of control and 97 % of control, the T/C (dose: 6.25 mg/kg/injection, schedule: Q01DX Z (ip), vehicle: saline) was 90 % of control and the T/C (dose: 8.0 mg/kg/injection, schedule: Q01DX010 (ip), vehicle: saline) was 100 % of control and 101 % of control. The T/C (dose: 12.5 mg/kg/injection, schedule: Q01DX Z (ip), vehicle: saline) was 100 % of control, the T/C (dose: 16.0 mg/kg/injection, schedule: Q01DX010 (ip), vehicle: saline) was 99 % of control and 100 % of control and the T/C (dose: 25.0 mg/kg/injection, schedule: Q01DX Z (ip), vehicle: saline) was 100 % of control. The T/C (dose: 32.0 mg/kg/injection, schedule: Q01DX010 (ip), vehicle: saline) was 101 % of control, the T/C (dose: 50.0 mg/kg/injection, schedule: Q01DX Z (ip), vehicle: saline) was 90 % of control and the T/C (dose: 75.0 mg/kg/injection, schedule: Q01DX Z (ip), vehicle: saline) was 96 % of control and 100 % of control. For the same molecule, the T/C (dose: 100.0 mg/kg/injection, schedule: Q01DX Z (ip), vehicle: saline) was 94 % of control and 108 % of control, the T/C (dose: 150.0 mg/kg/injection, schedule: Q01DX Z (ip), vehicle: saline) was 96 % of control and 102 % of control and the T/C (dose: 200.0 mg/kg/injection, schedule: Q01DX Z (ip), vehicle: saline) was 94 % of control.
In the case of `O=C(Nc1ccc(C2=NCCN2)cc1)Nc1cccc(NC(=O)Nc2ccc(C3=NCCN3)cc2)c1`, the T/C (dose: 60.0 mg/kg/injection, schedule: Q01DX010 (ip), vehicle: saline) is reported as 96 % of control and 110 % of control, the T/C (dose: 120.0 mg/kg/injection, schedule: Q01DX010 (ip), vehicle: saline) is reported as 92 % of control and 116 % of control and the T/C (dose: 240.0 mg/kg/injection, schedule: Q01DX010 (ip), vehicle: saline) is reported as 96 % of control and 100 % of control. For the same molecule, the T/C (dose: 480.0 mg/kg/injection, schedule: Q01DX010 (ip), vehicle: saline) was 86 % of control and 87 % of control.
In the case of `O=c1[nH]cc(F)c(=O)[nH]1`, the T/C (dose: 0.37 mg/kg/injection, schedule: Q01DX Z (ip), vehicle: carboxymethylcellulose (CMC)) is reported as 102 % of control, the T/C (dose: 0.75 mg/kg/injection, schedule: Q01DX Z (ip), vehicle: carboxymethylcellulose (CMC)) is reported as 114 % of control and the T/C (dose: 1.5 mg/kg/injection, schedule: Q01DX Z (ip), vehicle: carboxymethylcellulose (CMC)) is reported as 117 % of control. The T/C (dose: 5.0 mg/kg/injection, schedule: Q01DX010 (ip), vehicle: saline) was 119 % of control, the T/C (dose: 6.25 mg/kg/injection, schedule: Q01DX Z (ip), vehicle: carboxymethylcellulose (CMC)) was 175 % of control and the T/C [13] was 119 % of control. For the same molecule, the T/C (dose: 12.5 mg/kg/injection, schedule: Q01DX Z (ip), vehicle: carboxymethylcellulose (CMC)) was 185 % of control, the T/C [14] was 181 % of control and 198 % of control and the T/C [15] was 227 % of control. The T/C (dose: 40.0 mg/kg/injection, schedule: Q01DX010 (ip), vehicle: saline) was 104 % of control and 110 % of control and the T/C (dose: 100.0 mg/kg/injection, schedule: Q01DX Z (ip), vehicle: carboxymethylcellulose (CMC)) was 94 % of control and 102 % of control.
With `O=C1C(NC(=O)C2CCCCC2)=C(N2CC2)C(=O)C(NC(=O)C2CCCCC2)=C1N1CC1` the T/C (dose: 6.25 mg/kg/injection, schedule: Q01DX010 (ip), vehicle: saline) was 98 % of control, the T/C (dose: 12.5 mg/kg/injection, schedule: Q01DX010 (ip), vehicle: saline) was 98 % of control and the T/C (dose: 18.0 mg/kg/injection, schedule: Q01DX Z (ip), vehicle: carboxymethylcellulose (CMC)) was 108 % of control. The T/C [11] was 93 % of control and 98 % of control, the T/C [15] was 97 % of control and the T/C (dose: 37.5 mg/kg/injection, schedule: Q01DX Z (ip), vehicle: carboxymethylcellulose (CMC)) was 91 % of control. For the same molecule, the T/C [12] was 90 % of control and 102 % of control, the T/C (dose: 50.0 mg/kg/injection, schedule: Q01DX Z (ip), vehicle: carboxymethylcellulose (CMC)) was 100 % of control and the T/C (dose: 125.0 mg/kg/injection, schedule: Q01DX Z (ip), vehicle: carboxymethylcellulose (CMC)) was 121 % of control. For the same molecule, the T/C (dose: 250.0 mg/kg/injection, schedule: Q01DX Z (ip), vehicle: carboxymethylcellulose (CMC)) was 122 % of control.
`O=C(Nc1ccc(C2=NCCCN2)cc1)c1ccc(C(=O)Nc2ccc(C3=NCCCN3)cc2)cc1` was tested, and the T/C (dose: 1.0 mg/kg/injection, schedule: Q01DX010 (ip), vehicle: other) was 113 % of control and 114 % of control, the T/C [6] was 116 % of control and the T/C [7] was 123 % of control and 120 % of control. For the same molecule, the T/C [8] was 90 % of control and 95 % of control.
With `N#Cc1cn(C2OC(CO)C(O)C2O)c2ncnc(N)c12` (stereo not given) the T/C (dose: 31.3 micrograms/kg/injection, schedule: Q01DX010 (ip), vehicle: saline) was 95 % of control, the T/C [9] was 99 % of control and the T/C [10] was 97 % of control.
For `C[C@H](N)C(=O)N[C@@H]1[C@H]2C(=C(O)C[C@@H](O)[C@@H]2O)C(=O)O[C@@H]1C`, the T/C [4] was 156 % of control, the T/C [5] was 170 % of control and the T/C (dose: 750.0 mg/kg/injection, schedule: Q01DX Z (ip), vehicle: saline) was 202 % of control.
`CC[n+]1ccccc1-c1ccc(NC(=O)c2ccc(C(=O)Nc3ccc(-c4ccccn4)cc3)cc2)cc1` was tested, and the T/C (dose: 2.5 mg/kg/injection, schedule: Q01DX010 (ip), vehicle: saline) was 115 % of control, the T/C [13] was 119 % of control and the T/C [14] was 92 % of control.

Source: PubChem BioAssay AID282 (DTP/NCI, 2004)
